Experimental findings from PubChem BioAssay AID712 (Emory University Molecular Libraries Screening Center, 2007) are described below.

The target in the assay is Heat shock protein HSP 90-alpha (Homo sapiens) (UniProt P07900). The experiment in a line: tumor Hsp90 inhibitor potency, dose response (AID 712). Conditions: Hsp90 inhibition assay.

Active and inactive are the calls of the source. The rule behind the calls is not given here.

For the compound `Nc1cc(Br)cc2cccnc12`, the IC50 was > 50 µM (inactive).

`COc1ccc(S(=O)(=O)Nc2ccc(O)c(-c3ccccc3O)c2)cc1OC`: the IC50 was > 50 µM (inactive).

Turning to `CCCCn1c(NC(=O)c2ccccc2)c(C#N)c2nc3ccccc3nc21`, the IC50 was 27.1 µM.

On to `Cc1ccc(S(=O)(=O)Nc2ccc(N)c(-c3ccccc3O)c2)cc1`, for which the IC50 was > 50 µM (inactive).

`Nc1c(S(=O)(=O)c2cccc(Cl)c2)c2nc3ccccc3nc2n1/N=C/c1ccc(O)c(O)c1`: the IC50 was > 50 µM (inactive).

Consider `CCCC(C)C(=O)Nc1cc(OC)ccc1OC` (configuration not stated), for which the IC50 is > 50 µM (inactive).

For the compound `N#CCSc1nnc2[nH]c(=O)cc(N)n12`, the IC50 was > 50 µM (inactive).

Take `O=C1c2ccccc2C(Nc2ccc3c(c2)OCO3)N1Cc1ccc2c(c1)OCO2` (configuration not stated): the IC50 is > 50 µM (inactive).

With `O=S(=O)(Nc1cc(OCc2ccccc2)cc2cccnc12)c1ccc(F)cc1`, the IC50 was > 50 µM (inactive).

As to `CCc1ccc(-c2nnn(CCC(=O)OC)n2)cc1`, the IC50 is > 50 µM (inactive).

Regarding `Oc1cccc2cccnc12`, the IC50 was > 50 µM (inactive).

For `CC(=O)Oc1cc2oc(=O)cc(C)c2cc1OC(C)=O`, the IC50 was > 50 µM (inactive).

For `COc1cc(NS(=O)(=O)c2ccc(F)c(C#N)c2)c2ncccc2c1`, the IC50 is > 50 µM (inactive).

As to `Nc1cccc(S(=O)(=O)Nc2ccc(O)c(-c3ccccc3O)c2)c1`, the IC50 is > 50 µM (inactive).

`O=S(=O)(Nc1cc(O)cc2cccnc12)c1ccc(F)cc1`: the IC50 was 11.2 µM.

Take `Cc1ccc(C(=O)O)cc1S(=O)(=O)NCC1CCCO1` (configuration not stated): the IC50 was > 50 µM (inactive).

Regarding `Nc1ccc(NS(=O)(=O)c2ccccc2N)cc1-c1ccccc1O`, the IC50 was > 50 µM (inactive).

Regarding `CCOc1ccc2ccccc2c1-c1cc(NS(=O)(=O)c2cc(Cl)ccc2Cl)ccc1N`, the IC50 was > 50 µM (inactive).

`Cc1cc(=O)oc2c(N)c(O)ccc12`: the IC50 is > 50 µM (inactive).

Turning to `Nc1cc(=O)c2n[nH]nc2[nH]1`, the IC50 is > 50 µM (inactive).

On to `Oc1ccc2[nH]ccc2c1`, for which the IC50 was > 50 µM (inactive).

Turning to `N#Cc1cc(S(=O)(=O)Nc2cc(OCc3ccccc3)cc3cccnc23)ccc1F`, the IC50 was > 50 µM (inactive).

As for `NCCCCCNc1cc(O)cc2cccnc12`, the IC50 is < 1.56 µM.

For the compound `CCCC(C)N(CC)CCNc1cc(OC)cc2cccnc12` (configuration not stated), the IC50 was 12.5 µM.

Regarding `Cc1ccc(CNc2ccc(O)cc2)cc1`, the IC50 entry is “inactive”.

Regarding `Cc1cc(=O)oc2c(N)c(OCc3ccccc3)ccc12`, the IC50 was > 50 µM (inactive).

For the compound `Cc1nc(SCC(=O)c2ccc(O)cc2O)n[nH]1`, the IC50 is > 50 µM (inactive).

For `C=CCn1c(NC(=O)c2ccccc2Cl)c(C#N)c2nc3ccccc3nc21`, the IC50 was > 50 µM (inactive).

With `N#Cc1cc(S(=O)(=O)Nc2ccc(F)c(-c3c(O)ccc4c3OCO4)c2)ccc1F`, the IC50 was 25 µM.

As for `O=S(=O)(Cc1ccc(Cl)cc1)Nc1ccc2c(c1)OCO2`, the IC50 is > 50 µM (inactive).

With `CC(C)CN1C(=O)NC(NC(=O)c2ccco2)(C(F)(F)F)C1=O` (configuration not stated), the IC50 was > 50 µM (inactive).

For the compound `CC(=O)CCc1c(C)[nH]c2ccccc2c1=O`, the IC50 is > 50 µM (inactive).

With `COc1ccc(S(=O)(=O)Nc2ccc(N)c(-c3ccccc3O)c2)cc1OC`, the IC50 was > 50 µM (inactive).

Regarding `Cc1coc2c(O)cc3c(c12)OC1(N2CCCCC2)C(=O)NCCCC31` (configuration not stated), the IC50 was 6.62 µM.

`O=[N+]([O-])c1cc(S(=O)(=O)Nc2ccc(F)c(-c3c(O)ccc4c3OCO4)c2)ccc1Cl`: the IC50 is 25 µM.

As to `COc1ccc(C2CC(=O)C3=C(C2)Nc2ncnn2C3c2ccccc2)cc1` (configuration not stated), the IC50 was > 50 µM (inactive).

Take `c1ccc2[nH]c(SCc3ccc(-c4nnco4)cc3)nc2c1`: the IC50 is > 50 µM (inactive).

Regarding `CCn1c(CSc2nccn2C)nc2cc(C(=O)O)ccc21`, the IC50 is 13.4 µM.

On to `CCc1nc(SCC(=O)c2ccc(O)cc2O)n[nH]1`, for which the IC50 is > 50 µM (inactive).

Turning to `Cn1cnnc1SCC(=O)c1ccc2c(c1)CCCC2`, the IC50 is > 50 µM (inactive).

Turning to `O=C(c1sc2ccccc2c1Cl)N(Cc1ccco1)C1CCS(=O)(=O)C1` (configuration not stated), the IC50 was > 50 µM (inactive).

As to `Cc1ccc(S(=O)(=O)Nc2cc(O)cc3cccnc23)cc1`, the IC50 is > 50 µM (inactive).

As for `CCOC(=O)N1CCC(NC(=O)CSCc2nc(-c3sccc3C)oc2C)CC1`, the IC50 is > 50 µM (inactive).

For the compound `O=C(NCCCn1ccnc1)c1noc2c1CCc1ccccc1-2`, the IC50 is 13.5 µM.

With `CCS(=O)(=O)NCc1ccc2[nH]c3c(c2c1)CCCC3`, the IC50 is 29.2 µM.

In the case of `Oc1ccc2ccccc2c1C=NC12CN3CCN(CN(C3)C1)C2`, the IC50 was 6.41 µM.

Regarding `CC(OC(=O)c1cccs1)C(=O)NCc1cccs1` (configuration not stated), the IC50 is > 50 µM (inactive).

In the case of `CC(C)NCCCCCNc1cc(O)cc2cccnc12`, the IC50 was 6.25 µM.

On to `O=C1C(c2ccc3ccccc3n2)=C(O)c2ccccc21`, for which the IC50 was > 50 µM (inactive).

With `O=C1C(=Cc2ccccn2)CNCC1=Cc1ccccn1`, the IC50 was > 50 µM (inactive).

As for `O=C(NCc1cccnc1)C1c2ccccc2C(=O)N1Cc1ccco1` (configuration not stated), the IC50 is > 50 µM (inactive).

Consider `Nc1cc2ccccc2c(O)c1O`, for which the IC50 was < 1.56 µM.

For `O=C(COc1ccc(-c2ccccc2)cc1)N1CCN(C(=O)c2cccnc2)CC1`, the IC50 was > 50 µM (inactive).

Take `O=C1c2cccnc2C(=O)N1Cc1ccc2c(c1)OCO2`: the IC50 is > 50 µM (inactive).

Take `CC(=O)Oc1cccc2c1C(=O)c1c(OC(C)=O)cc(C(=O)O)cc1C2=O`: the IC50 is 9.23 µM.

For `c1ccc2sc(SCc3ccc(-c4nnco4)cc3)nc2c1`, the IC50 was > 50 µM (inactive).

Consider `CCN(CC)CCCCCNc1cc(O)cc2cccnc12`, for which the IC50 was 6.25 µM.
